Laboratory results reported in patent publication US20260193268A1, “TRICYCLIC PI3Ka INHIBITOR, PREPARATION METHOD THEREFOR, AND PHARMACEUTICAL USE THEREOF” (WIGEN BIOMEDICINE TECHNOLOGY (SHANGHAI) CO., LTD., priority 2022, published 2026).
Like-named read-outs stand apart in the source and are kept apart here.

Legend:
[1] = system: HCC1954 cells (with PI3Kα H1047R mutation); assay: In vitro inhibition of HCC1954 cell proliferation (CellTiter-Lumi); assay type: cell-based; conditions: Homo sapiens, HCC1954, 144 h, HCC1954 cells, 144 h, CellTiter-Lumi
Method: Assay for In Vitro Inhibition of HCC1954 Cell Proliferation by Compounds of the Present Disclosure
The growth of the cells was evaluated, and the IC50 for the inhibition of cell growth by the compounds was calculated.

[2] = system: MCF-7 cells (with PI3Kα E545K mutation); assay: In vitro inhibition of MCF-7 cell proliferation (CellTiter-Lumi); assay type: cell-based; conditions: Homo sapiens, MCF7, 144 h
In short: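 MCF-7 (PI3Kα E545K) seeded at 2000 cells/well; serially diluted compounds added next day and exposed for 144 h. Cellular ATP read by CellTiter-Lumi luminescence; IC50 for growth inhibition calculated.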

[3] = class symbols, read-out: Inhibitory activity against HCC1954 cells (IC50), class symbols
[4] = class symbols, read-out: Inhibitory activity against MCF-7 cells (IC50), class symbols
[5] = numeric values, read-out: Inhibitory activity against HCC1954 cells (IC50)
[6] = numeric values, read-out: Inhibitory activity against MCF-7 cells (IC50)

IC50 [1, 3] [µM] | IC50 [2, 4] [µM] | IC50 [1, 5] [µM] | IC50 [2, 6] [µM] | SMILES
< 0.05 | < 0.05 |  |  | CC(C)(C=C(C#N)C(=O)Nc1ccc(N2CC(N3CCN(c4ccc5c(c4)-c4nc(N6C(=O)OC[C@H]6C(F)F)cn4CCO5)CC3)C2)nc1)N1CC2(COC2)C1 [Compound 246]
< 0.05 | < 0.05 |  |  | CC(C)(C=C(C#N)C(=O)Nc1ccc(N2CC(N3CCN(c4ccc5c(c4)-c4nc(N6C(=O)OC[C@H]6C(F)F)cn4CCO5)CC3)C2)nc1)N1CCC1 [Compound 247]
< 0.05 | < 0.05 |  |  | CC(C)(O)C=C(C#N)C(=O)Nc1ccc(N2CC(N3CCN(c4ccc5c(c4)-c4nc(N6C(=O)OC[C@H]6C(F)F)cn4CCO5)CC3)C2)nc1 [Compound 248]
< 0.05 | < 0.05 |  |  | COC(C)(C)C=C(C#N)C(=O)Nc1ccc(N2CC(N3CCN(c4ccc5c(c4)-c4nc(N6C(=O)OC[C@H]6C(F)F)cn4CCO5)CC3)C2)nc1 [Compound 249]
< 0.05 | < 0.05 |  |  | COCCNC(C)(C)C=C(C#N)C(=O)Nc1ccc(N2CC(N3CCN(c4ccc5c(c4)-c4nc(N6C(=O)OC[C@H]6C(F)F)cn4CCO5)CC3)C2)nc1 [Compound 250]
< 0.05 | < 0.05 |  |  | CC1(C=C(C#N)C(=O)Nc2ccc(N3CC(N4CCN(c5ccc6c(c5)-c5nc(N7C(=O)OC[C@H]7C(F)F)cn5CCO6)CC4)C3)nc2)COC1 [Compound 251]
< 0.05 | < 0.05 |  |  | N#CC(=CC1CCCN1)C(=O)Nc1ccc(N2CC(N3CCN(c4ccc5c(c4)-c4nc(N6C(=O)OC[C@H]6C(F)F)cn4CCO5)CC3)C2)nc1 (stereo partly shown) [Compound 252]
< 0.05 | < 0.05 |  |  | N#CC(=CC1(N)CC1)C(=O)Nc1ccc(N2CC(N3CCN(c4ccc5c(c4)-c4nc(N6C(=O)OC[C@H]6C(F)F)cn4CCO5)CC3)C2)nc1 [Compound 253]
< 0.05 | < 0.05 |  |  | CC=C(C#N)C(=O)Nc1ccc(N2CC(N3CCN(c4ccc5c(c4)-c4nc(N6C(=O)OC[C@H]6C(F)F)cn4CCO5)CC3)C2)nc1 [Compound 254]
< 0.05 | < 0.05 |  |  | CNC1(C=C(C#N)C(=O)Nc2ccc(N3CC(N4CCN(c5ccc6c(c5)-c5nc(N7C(=O)OC[C@H]7C(F)F)cn5CCO6)CC4)C3)nc2)CC1 [Compound 255]
< 0.05 | < 0.05 |  |  | CC(C)(C=C(C#N)C(=O)Nc1cnc(N2CC(N3CCN(c4ccc5c(c4)-c4nc(N6C(=O)OC[C@H]6C(F)F)cn4CCO5)CC3)C2)nc1)N1CCOCC1 [Compound 258]
< 0.05 | < 0.05 |  |  | CC(C)(C)C=C(C#N)C(=O)Nc1cnc(N2CC(N3CCN(c4ccc5c(c4)-c4nc(N6C(=O)OC[C@H]6C(F)F)cn4CCO5)CC3)C2)nc1 [Compound 259]
< 0.05 | < 0.05 |  |  | CC(C)(N)C=C(C#N)C(=O)Nc1cnc(N2CC(N3CCN(c4ccc5c(c4)-c4nc(N6C(=O)OC[C@H]6C(F)F)cn4CCO5)CC3)C2)nc1 [Compound 260]
< 0.05 | < 0.05 |  |  | CNC(C)(C)C=C(C#N)C(=O)Nc1cnc(N2CC(N3CCN(c4ccc5c(c4)-c4nc(N6C(=O)OC[C@H]6C(F)F)cn4CCO5)CC3)C2)nc1 [Compound 261]
< 0.05 | < 0.05 |  |  | CC(C)C=C(C#N)C(=O)Nc1cnc(N2CC(N3CCN(c4ccc5c(c4)-c4nc(N6C(=O)OC[C@H]6C(F)F)cn4CCO5)CC3)C2)nc1 [Compound 262]
< 0.05 | < 0.05 |  |  | N#CC(=CC1CC1)C(=O)Nc1cnc(N2CC(N3CCN(c4ccc5c(c4)-c4nc(N6C(=O)OC[C@H]6C(F)F)cn4CCO5)CC3)C2)nc1 [Compound 263]
< 0.05 | < 0.05 |  |  | CC(C)(C=C(C#N)C(=O)Nc1cnc(N2CC(N3CCN(c4ccc5c(c4)-c4nc(N6C(=O)OC[C@H]6C(F)F)cn4CCO5)CC3)C2)nc1)N1CC2(COC2)C1 [Compound 264]
< 0.05 | < 0.05 |  |  | CC(C)(C=C(C#N)C(=O)Nc1cnc(N2CC(N3CCN(c4ccc5c(c4)-c4nc(N6C(=O)OC[C@H]6C(F)F)cn4CCO5)CC3)C2)nc1)N1CCC1 [Compound 265]
< 0.05 | < 0.05 |  |  | CC(C)(O)C=C(C#N)C(=O)Nc1cnc(N2CC(N3CCN(c4ccc5c(c4)-c4nc(N6C(=O)OC[C@H]6C(F)F)cn4CCO5)CC3)C2)nc1 [Compound 266]
< 0.05 | < 0.05 |  |  | COC(C)(C)C=C(C#N)C(=O)Nc1cnc(N2CC(N3CCN(c4ccc5c(c4)-c4nc(N6C(=O)OC[C@H]6C(F)F)cn4CCO5)CC3)C2)nc1 [Compound 267]
< 0.05 | < 0.05 |  |  | COCCNC(C)(C)C=C(C#N)C(=O)Nc1cnc(N2CC(N3CCN(c4ccc5c(c4)-c4nc(N6C(=O)OC[C@H]6C(F)F)cn4CCO5)CC3)C2)nc1 [Compound 268]
< 0.05 | < 0.05 |  |  | CC1(C=C(C#N)C(=O)Nc2cnc(N3CC(N4CCN(c5ccc6c(c5)-c5nc(N7C(=O)OC[C@H]7C(F)F)cn5CCO6)CC4)C3)nc2)COC1 [Compound 269]

IC50 [1, 3] [µM] | IC50 [2, 4] [µM] | IC50 [1, 5] [µM] | IC50 [2, 6] [µM] | SMILES
< 0.05 | < 0.05 |  |  | N#CC(=CC1CCCN1)C(=O)Nc1cnc(N2CC(N3CCN(c4ccc5c(c4)-c4nc(N6C(=O)OC[C@H]6C(F)F)cn4CCO5)CC3)C2)nc1 (stereo partly shown) [Compound 270]
< 0.05 | < 0.05 |  |  | N#CC(=CC1(N)CC1)C(=O)Nc1cnc(N2CC(N3CCN(c4ccc5c(c4)-c4nc(N6C(=O)OC[C@H]6C(F)F)cn4CCO5)CC3)C2)nc1 [Compound 271]
< 0.05 | < 0.05 |  |  | CC=C(C#N)C(=O)Nc1cnc(N2CC(N3CCN(c4ccc5c(c4)-c4nc(N6C(=O)OC[C@H]6C(F)F)cn4CCO5)CC3)C2)nc1 [Compound 272]
< 0.05 | < 0.05 |  |  | CNC1(C=C(C#N)C(=O)Nc2cnc(N3CC(N4CCN(c5ccc6c(c5)-c5nc(N7C(=O)OC[C@H]7C(F)F)cn5CCO6)CC4)C3)nc2)CC1 [Compound 273]
< 0.05 | < 0.05 |  |  | CN(C1COC1)C(C)(C)C=C(C#N)C(=O)Nc1ccc(N2CC(N3CCN(c4ccc5c(c4)-c4nc(N6C(=O)OC[C@H]6C(F)F)cn4CCO5)CC3)C2)cc1 [Compound 274]
< 0.05 | < 0.05 |  |  | CC(C)(N)/C=C/C(=O)Nc1ccc(N2CC(N3CCN(c4ccc5c(c4)-c4nc(N6C(=O)OC[C@H]6C(F)F)cn4CCO5)CC3)C2)cc1 [Compound 276]
< 0.05 | < 0.05 |  |  | C=CC(=O)Nc1ccc(N2CC(N3CCN(c4ccc5c(c4)-c4nc(N6C(=O)OC[C@H]6C(F)(F)F)cn4CCO5)CC3)C2)cc1 [Compound 277]
 |  | 0.042 | 0.016 | N#CC(=CC1CC1)C(=O)Nc1ccc(N2CC(N3CCN(c4ccc5c(c4)-c4nc(N6C(=O)OC[C@H]6C(F)F)cn4CCO5)CC3)C2)cc1 [Compound 278]
 |  | 0.0028 | 0.0001 | C=CC(=O)Nc1ccc(N2CC(N3CCN(c4ccc5c(c4)-c4nc(N6C(=O)OC[C@H]6C(F)F)cn4CCO5)CC3)C2)cc1OC(F)(F)F [Compound 279]
 |  | 0.0034 | 0.0002 | C=CC(=O)Nc1ccc(N2CC(N3CCN(c4ccc5c(c4)-c4nc(N6C(=O)OC[C@H]6C(F)F)cn4CCO5)CC3)C2)c(OC)c1 [Compound 280]
< 0.05 | < 0.05 |  |  | COC1(C=C(C#N)C(=O)Nc2ccc(N3CC(N4CCN(c5ccc6c(c5)-c5nc(N7C(=O)OC[C@H]7C(F)F)cn5CCO6)CC4)C3)cc2)CC1 [Compound 282]
< 0.05 | < 0.05 |  |  | CC1CC1C=C(C#N)C(=O)Nc1ccc(N2CC(N3CCN(c4ccc5c(c4)-c4nc(N6C(=O)OC[C@H]6C(F)F)cn4CCO5)CC3)C2)cc1 (stereo partly shown) [Compound 284]
< 0.05 | < 0.05 |  |  | CN(C)C/C=C/C(=O)Nc1ccc(N2CC(N3CCN(c4ccc5c(c4)-c4nc(N6C(=O)OC[C@H]6C(F)F)cn4CCO5)CC3)C2)nc1 [Compound 285]
< 0.05 | < 0.05 |  |  | CN(C)C/C=C/C(=O)Nc1ncc(N2CC(N3CCN(c4ccc5c(c4)-c4nc(N6C(=O)OC[C@H]6C(F)F)cn4CCO5)CC3)C2)cn1 [Compound 286]
< 0.05 | < 0.05 |  |  | CN(C)C/C=C/C(=O)Nc1ccc(N2CC(N3CCN(c4ccc5c(c4)-c4nc(N6C(=O)OC[C@H]6C(F)F)cn4CCO5)CC3)C2)nn1 [Compound 287]
< 0.05 | < 0.05 |  |  | CN(C)C/C=C/C(=O)Nc1cnc(N2CC(N3CCN(c4ccc5c(c4)-c4nc(N6C(=O)OC[C@H]6C(F)F)cn4CCO5)CC3)C2)nc1 [Compound 288]
< 0.05 | < 0.05 |  |  | CN(C1COC1)C(C)(C)C=C(C#N)C(=O)Nc1ccc(N2CC(N3CCN(c4ccc5c(c4)-c4nc(N6C(=O)OC[C@H]6C(F)F)cn4CCO5)CC3)C2)cn1 [Compound 289]
< 0.05 | < 0.05 |  |  | CC(C)(C=C(C#N)C(=O)Nc1ccc(N2CC(N3CCN(c4ccc5c(c4)-c4nc(N6C(=O)OC[C@H]6C(F)F)cn4CCO5)CC3)C2)cn1)NC1COC1 [Compound 290]
< 0.05 | < 0.05 |  |  | CC(C)(N)C=C(C#N)C(=O)Nc1ccc(N2CC(N3CCN(c4ccc5c(c4)-c4nc(N6C(=O)OC[C@H]6C(F)F)cn4CCO5)CC3)C2)cn1 [Compound 291]
< 0.05 | < 0.05 |  |  | CN(C1COC1)C(C)(C)C=C(C#N)C(=O)Nc1ncc(N2CC(N3CCN(c4ccc5c(c4)-c4nc(N6C(=O)OC[C@H]6C(F)F)cn4CCO5)CC3)C2)cn1 [Compound 292]
< 0.05 | < 0.05 |  |  | CC(C)(C=C(C#N)C(=O)Nc1ncc(N2CC(N3CCN(c4ccc5c(c4)-c4nc(N6C(=O)OC[C@H]6C(F)F)cn4CCO5)CC3)C2)cn1)NC1COC1 [Compound 293]
< 0.05 | < 0.05 |  |  | CC(C)(N)C=C(C#N)C(=O)Nc1ncc(N2CC(N3CCN(c4ccc5c(c4)-c4nc(N6C(=O)OC[C@H]6C(F)F)cn4CCO5)CC3)C2)cn1 [Compound 294]
